For this test, the system named is LPS induced TNF release. As to the kind of experiment: THP1 cell assay (LPS induced TNF release). Conditions: Homo sapiens, THP-1; THP1 cells, LPS induced TNF-α secretion, 3 h at 37° C. It counts as cell-based. The method, then:
Lipopolysaccharide-Activated THP1 Cell TNF Production Assay
THP1 cells are resuspended in fresh THP1 media (RPMI 1640, 10% heat-inactivated FBS, 1XPGS, 1XNEAA, plus 30 μM OME) at a concentration of 1E6/mL. One hundred microliters of cells per well are plated in a polystyrene 96-well tissue culture. One microgram per mL of bacterial LPS is prepared in THP1 media and is transferred to the wells. Test compounds are dissolved in 100% DMSO and are serially diluted 3-fold in a polypropylene 96-well microtiter plate (drug plate). HI control and LO control wells contain only DMSO. One microliter of test compound from the drug plate followed by 10 μL of LPS are transferred to the cell plate. The treated cells are induced to synthesize and secrete TNF-α at 37° C. for 3 h. Forty microliters of conditioned media are transferred to a 96-well polypropylene plate containing 110 μL of ECL buffer (50 mM Tris-HCl pH 8.0, 100 mM NaCl, 0.05% Tween 20, 0.05% NaN3 and 1% FBS) supplemented with 0.44 nM MAB610 monoclonal Ab (R&D Systems), 0.34 nM ruthenylated AF210NA polyclonal Ab (R&D Systems) and 44 μg/mL sheep anti-mouse M280 Dynabeads (Dynal). After a 2 h incubation at RT with shaking, the reaction is read on the ECL M8 Instrument (IGEN Inc.). A low voltage is applied to the ruthenylated TNF-α immune complexes, which in the presence of TPA (the active component in Origlo), results in a cyclical redox reaction generating light at […]. The amount of secreted TNF-α in the presence of compound compared with that in the presence of DMSO vehicle alone (HI control) is calculated using the formula: % control (POC)=(cpd−average LO)/(average HI−average LO)*100. Data (consisting of POC and inhibitor concentration in μM) is fitted to a 4-parameter equation (y=A+((B−A)/(I+((x/C)ˆD))), where A is the minimum y (POC) value, B is the maximum y (POC), C is the x (cpd concentration) at the point of inflection and D is the slope factor) using a Levenburg-Marquardt non-linear regression algorithm.

For orientation: IC50 means the concentration that gives 50% inhibition. A low value points to greater potency in that assay. Take `CC(C)NC1CCC(Nc2nccc(N3CCCc4cnc(-c5ccccc5)cc43)n2)CC1` [Example 37, (1R,4R)-N^1-Isopropyl-N^4-(4-(7-phenyl-3,4-dihydro-1,6-naphthyridin-1(2H)-yl)-pyrimidin-2-yl)cyclohexane-1,4-diamine]: the concentration for half-maximal inhibition (IC50) was no more than 20 µM.
In turn, `C[C@@H](Cc1cccc(CN)c1)Nc1nccc(N2CCCc3cnc(-c4ccccc4)cc32)n1` [Example 38] had an IC50 of no more than 20 µM.
With `C[C@@H](Cc1cccc(C(C)(C)N)c1)Nc1nccc(N2CCCc3cnc(-c4ccccc4)cc32)n1` [Example 39, (S)-N-(1-(3-(2-Aminopropan-2-yl)phenyl)propan-2-yl)-4-(7-phenyl-3,4-dihydro-1,6-naphthyridin-1(2H)-yl) pyrimidin-2-amine], the IC50 was no more than 20 µM.
Regarding `CC(C)(Cc1ccc(F)cc1)Nc1nccc(N2CCCc3cnc(-c4ccccc4)cc32)n1` [Example 40, N-(1-(4-Fluorophenyl)-2-methylpropan-2-yl)-4-(7-phenyl-3,4-dihydro-1,6-naphthyridin-1(2H)-yl) pyrimidin-2-amine], the IC50 was no more than 20 µM.
Compound `CC(C)(CN)Nc1nccc(N2CCCc3cnc(-c4ccccc4)cc32)n1` [Example 41, N-(1-Amino-2-methylpropan-2-yl)-4-(7-phenyl-3,4-dihydro-1,6-naphthyridin-1(2H)-yl)pyrimidin-2-amine] showed an IC50 of no more than 20 µM.
For the compound `CC(=O)NCC(C)(C)Nc1nccc(N2CCCc3cnc(-c4ccccc4)cc32)n1` [Example 42, N-(2-Methyl-2-(4-(7-phenyl-3,4-dihydro-1,6-naphthyridin-1(2H)-yl)pyrimidin-2-ylamino)propyl)acetamide], the concentration for half-maximal inhibition (IC50) was no more than 20 µM.
Consider `CC(C)NCC(C)(C)Nc1nccc(N2CCCc3cnc(-c4ccccc4)cc32)n1` [Example 43, N-(1-(Isopropylamino)-2-methylpropan-2-yl)-4-(7-phenyl-3,4-dihydro-1,6-naphthyridin-1(2H)-yl) pyrimidin-2-amine], for which the IC50 was no more than 20 µM.
The compound `c1ccc(CCNc2nccc(N3CCCc4ccc(-c5ccccc5)nc43)n2)cc1` [Example 47, N-Phenethyl-4-(7-phenyl-3,4-dihydro-1,8-naphthyridin-1(2H)-yl)pyrimidin-2-amine] registered an IC50 of no more than 20 µM.
The figure for `CC(Cc1cccc(CO)c1)Nc1nccc(N2CCCc3ccc(-c4ccccc4)nc32)n1` (centres unmarked) [Example 48, (3-(2-(4-(7-Phenyl-3,4-dihydro-1,8-naphthyridin-1(2H)-yl)pyrimidin-2-yl-amino)propyl)phenyl)methanol] is no more than 20 µM; for `CC(Cc1cccc(CN)c1)Nc1nccc(N2CCCc3ccc(-c4ccccc4)nc32)n1` (centres unmarked) [Example 49, N-(1-(3-(Aminomethyl)phenyl)propan-2-yl)-4-(7-phenyl-3,4-dihydro-1,8-naphthyridin-1(2H)-yl)pyrimidin-2-amine] it is no more than 20 µM; for `c1ccc(-c2ccc3c(n2)N(c2ccnc(NCCc4cccnc4)n2)CCC3)cc1` [Example 50, 4-(7-Phenyl-3,4-dihydro-1,8-naphthyridin-1(2H)-yl)-N-(2-(pyridin-3-yl)ethyl)-pyrimidin-2-amine] it is no more than 20 µM.
As to `CN(C)CC(C)(C)CNc1nccc(N2CCCc3ccc(-c4ccccc4)nc32)n1` [Example 51, N-(3-(Dimethylamino)-2,2-dimethylpropyl)-4-(7-phenyl-3,4-dihydro-1,8-naphthyridin-1(2H)-yl)pyrimidin-2-amine], the IC50 is no more than 20 µM.
Turning to `CC(C)(C)CNc1nccc(N2CCCc3ccc(-c4ccccc4)nc32)n1` [Example 52, N-Neopentyl-4-(7-phenyl-3,4-dihydro-1,8-naphthyridin-1(2H)-yl)pyrimidin-2-amine], the IC50 was no more than 20 µM.
`CC(C)(N)CNc1nccc(N2CCCc3ccc(-c4ccccc4)nc32)n1` [Example 53, N-(2-Amino-2-methylpropyl)-4-(7-phenyl-3,4-dihydro-1,8-naphthyridin-1(2H)-yl)-pyrimidin-2-amine] came in with a half-maximal inhibitory concentration (IC50) of no more than 20 µM.
Regarding `CC(C)(C)OC(=O)N1CCC(Nc2nccc(N3CCCc4ccc(-c5ccccc5)nc43)n2)CC1` [Example 54, tert-Butyl 4-(4-(7-phenyl-3,4-dihydro-1,8-naphthyridin-1(2H)-yl)pyrimidin-2-yl-amino)piperidine-1-carboxylate], the IC50 is no more than 20 µM.
As to `FC(F)(F)c1cc(N2CCCc3ccc(-c4ccccc4)nc32)nc(NCCc2ccccc2)n1` [Example 56, N-Phenethyl-4-(7-phenyl-3,4-dihydro-1,8-naphthyridin-1(2H)-yl)-6-(trifluoromethyl)pyrimidin-2-amine], the IC50 is no more than 20 µM.
Compound `CC(Cc1cccc(CO)c1)Nc1nc(N2CCCc3ccc(-c4ccccc4)nc32)cc(C(F)(F)F)n1` (centres unmarked) [Example 57, (3-(2-(4-(7-Phenyl-3,4-dihydro-1,8-naphthyridin-1(2H)-yl)-6-(trifluoromethyl)-pyrimidin-2-ylamino)propyl)phenyl)methanol] showed an IC50 of no more than 20 µM.
The figure for `CC(Cc1cccc(CN)c1)Nc1nc(N2CCCc3ccc(-c4ccccc4)nc32)cc(C(F)(F)F)n1` (centres unmarked) [Example 58, N-(1-(3-(Aminomethyl)phenyl)propan-2-yl)-4-(7-phenyl-3,4-dihydro-1,8-naphthyridin-1(2H)-yl)-6-(trifluoromethyl)pyrimidin-2-amine] is no more than 20 µM; for `Cc1cc(N2CCCc3ccc(-c4ccccc4)nc32)nc(F)n1` [Example 59, 1-(2-Fluoro-6-methylpyrimidin-4-yl)-7-phenyl-1,2,3,4-tetrahydro-1,8-naphthyridine] it is no more than 20 µM.
For `Cc1cc(N2CCCc3ccc(-c4ccccc4)nc32)nc(NC2CCN(C(=O)OC(C)(C)C)CC2)n1` [Example 60, tert-Butyl 4-(4-methyl-6-(7-phenyl-3,4-dihydro-1,8-naphthyridin-1(2H)-yl)-pyrimidin-2-ylamino)piperidine-1-carboxylate], the half-inhibitory concentration (IC50) is no more than 20 µM.
On to `Cc1cc(N2CCCc3ccc(-c4ccccc4)nc32)nc(N[C@@H](C)Cc2cccc([C@@H](C)NC(=O)OC(C)(C)C)c2)n1` [Example 61, tert-Butyl (R)-1-(3-((S)-2-(4-methyl-6-(7-phenyl-3,4-dihydro-1,8-naphthyridin-1 (2H)-yl)pyrimidin-2-ylamino)propyl)phenyl)ethylcarbamate], for which the half-maximal inhibitory concentration (IC50) is no more than 20 µM.
The figure for `Cc1cc(N2CCCc3ccc(-c4ccccc4)nc32)nc(N[C@@H](C)Cc2cccc([C@@H](C)N)c2)n1` [Example 62, N-((S)-1-(3-((R)-1-Aminoethyl)phenyl)propan-2-yl)-4-methyl-6-(7-phenyl-3,4-dihydro-1,8-naphthyridin-1(2H)-yl)pyrimidin-2-amine] is no more than 20 µM.
Then `CCOC(=O)c1cc2c(nc1-c1ccccc1)N(c1ccnc(NCCc3ccccc3)n1)CCC2` [Example 66, Ethyl 8-(2-(Phenethylamino)pyrimidin-4-yl)-2-phenyl-5,6,7,8-tetrahydro-1,8-naphthyridine-3-carboxylate], with no more than 20 µM.
Then `OCc1cc2c(nc1-c1ccccc1)N(c1ccnc(NCCc3ccccc3)n1)CCC2` [Example 67, (8-(2-(Phenethylamino)pyrimidin-4-yl)-2-phenyl-5,6,7,8-tetrahydro-1,8-naphthyridin-3-yl)methanol], with no more than 20 µM; and `COCc1cc2c(nc1-c1ccccc1)N(c1ccnc(NCCc3ccccc3)n1)CCC2` [Example 68, 4-(6-(Methoxymethyl)-7-phenyl-3,4-dihydro-1,8-naphthyridin-1(2H)-yl)-N-phenethylpyrimidin-2-amine], with no more than 20 µM; and `O=C(O)c1cc2c(nc1-c1ccccc1)N(c1ccnc(NCCc3ccccc3)n1)CCC2` [Example 69, 8-(2-(Phenethylamino)pyrimidin-4-yl)-2-phenyl-5,6,7,8-tetrahydro-1,8-naphthyridine-3-carboxylic acid], with no more than 20 µM.
In turn, `CNCc1cc2c(nc1-c1ccccc1)N(c1ccnc(NCCc3ccccc3)n1)CCC2` [Example 70, 4-(6-((Methylamino)methyl)-7-phenyl-3,4-dihydro-1,8-naphthyridin-1(2H)-yl)-N-phenethylpyrimidin-2-amine] had an IC50 of no more than 20 µM.
Take `CN(C)Cc1cc2c(nc1-c1ccccc1)N(c1ccnc(NCCc3ccccc3)n1)CCC2` [Example 71, 4-(6-((Dimethylamino)methyl)-7-phenyl-3,4-dihydro-1,8-naphthyridin-1(2H)-yl)-N-phenethylpyrimidin-2-amine]: the half-inhibitory concentration (IC50) was no more than 20 µM.
Then `CC(=O)c1cc2c(nc1-c1ccccc1)N(c1ccnc(NCCc3ccccc3)n1)CCC2` [Example 72, 1-(8-(2-(Phenethylamino)pyrimidin-4-yl)-2-phenyl-5,6,7,8-tetrahydro-1,8-naphthyridin-3-yl)ethanone], with no more than 20 µM.

The record behind these values is patent US20060161001A1, “Substituted heterocyclic compounds and methods of use” (Amgen Inc., priority 2004, published 2006).
